Experiment [1] addresses T1, HiBit-BRG1 fusion protein in stable HeLa cell line expressing HiBit-BRG1 and LgBit (Homo sapiens, UniProt P51532).
T1 construct: expressed in transfected cells
Description: HiBiT-BRG1 cell-based degradation assay (Nano-Glo HiBiT, 24 h). As to conditions: HeLa HiBit-BRG1/LgBit cells; for Dmax: top dose 30 μM, read-out: BRG1 HiBit Degradation Maximum (%); for DC50: read-out: BRMG1 HiBit Degradation IC50. In short, it runs like this:
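Degradation calculated from NanoBiT luminescence relative to DMSO-treated cells (high) and cells given 2 μM known BRM/BRG1 degrader (low). HeLa cells stably expressing HiBiT-BRG1 plus LgBiT were exposed to compound for 24 h before lytic HiBiT detection.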
(With HiBiT, luminescence reflects the tagged protein that the partner subunit can reach.)

Experiment [2] has as its target T2, HiBiT-BRM fusion protein in stable HeLa cell line (Homo sapiens, UniProt P51531).
T2 construct: expressed in transfected cells
Description: HiBiT-BRM cell-based degradation assay (Nano-Glo HiBiT Lytic Detection, 24 h). As to conditions: HeLa HiBiT-BRM cells; for DC50: read-out: BRM HiBit Degradation IC50; for BRM HiBit Degradation Maximum (%): top dose 30 μM. The arrangement: DC50: scale not given here. In a few lines:
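HiBiT-tagged BRM levels in a stable HeLa line are measured after one day of compound treatment (up to 30 μM final, duplicate 10-point curves) by adding LgBiT lytic reagent and reading bioluminescence; values are expressed relative to vehicle and a 2 μM degrader control.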

T2 sequence (P51531 whole entry, the tested form may be a part): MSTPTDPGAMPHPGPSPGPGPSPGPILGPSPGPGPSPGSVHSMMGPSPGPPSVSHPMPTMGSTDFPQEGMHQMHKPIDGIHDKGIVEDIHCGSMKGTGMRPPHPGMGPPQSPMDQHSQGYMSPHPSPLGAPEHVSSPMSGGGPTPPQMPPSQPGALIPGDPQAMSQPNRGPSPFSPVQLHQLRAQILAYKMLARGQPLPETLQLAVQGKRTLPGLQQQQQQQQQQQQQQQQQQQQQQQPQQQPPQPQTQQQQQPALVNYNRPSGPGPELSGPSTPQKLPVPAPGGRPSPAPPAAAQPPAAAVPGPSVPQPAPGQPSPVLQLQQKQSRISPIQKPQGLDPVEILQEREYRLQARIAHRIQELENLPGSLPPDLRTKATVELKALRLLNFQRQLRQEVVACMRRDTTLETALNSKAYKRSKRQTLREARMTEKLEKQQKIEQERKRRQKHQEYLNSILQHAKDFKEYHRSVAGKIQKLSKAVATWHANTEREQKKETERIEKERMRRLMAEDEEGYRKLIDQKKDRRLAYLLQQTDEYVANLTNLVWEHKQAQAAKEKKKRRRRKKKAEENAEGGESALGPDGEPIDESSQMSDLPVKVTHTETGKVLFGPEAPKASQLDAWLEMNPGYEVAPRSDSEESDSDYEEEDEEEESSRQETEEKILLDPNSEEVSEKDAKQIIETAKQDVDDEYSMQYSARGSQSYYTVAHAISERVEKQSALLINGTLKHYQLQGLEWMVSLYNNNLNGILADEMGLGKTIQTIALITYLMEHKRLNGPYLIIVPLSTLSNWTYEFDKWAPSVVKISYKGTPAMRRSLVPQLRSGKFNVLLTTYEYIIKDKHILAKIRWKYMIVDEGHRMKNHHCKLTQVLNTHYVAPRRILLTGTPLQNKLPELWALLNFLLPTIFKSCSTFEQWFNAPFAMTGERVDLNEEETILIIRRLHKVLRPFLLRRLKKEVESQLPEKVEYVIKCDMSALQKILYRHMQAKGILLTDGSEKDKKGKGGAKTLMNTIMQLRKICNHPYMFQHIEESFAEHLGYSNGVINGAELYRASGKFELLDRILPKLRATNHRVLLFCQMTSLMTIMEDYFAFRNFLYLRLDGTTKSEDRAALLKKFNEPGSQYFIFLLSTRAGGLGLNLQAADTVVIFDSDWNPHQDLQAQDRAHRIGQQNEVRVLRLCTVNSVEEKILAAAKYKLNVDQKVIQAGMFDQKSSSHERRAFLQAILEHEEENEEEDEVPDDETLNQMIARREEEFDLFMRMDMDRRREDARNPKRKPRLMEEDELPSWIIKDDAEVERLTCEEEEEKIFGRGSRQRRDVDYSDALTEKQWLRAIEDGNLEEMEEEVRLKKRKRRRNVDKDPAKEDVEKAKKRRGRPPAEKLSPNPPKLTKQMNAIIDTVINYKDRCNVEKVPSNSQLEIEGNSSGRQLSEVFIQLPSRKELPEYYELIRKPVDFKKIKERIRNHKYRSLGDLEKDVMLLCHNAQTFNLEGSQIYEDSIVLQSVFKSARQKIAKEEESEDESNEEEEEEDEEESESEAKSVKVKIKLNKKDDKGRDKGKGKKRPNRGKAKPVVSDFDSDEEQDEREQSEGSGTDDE
T1 sequence (P51532 whole entry, the tested form may be a part): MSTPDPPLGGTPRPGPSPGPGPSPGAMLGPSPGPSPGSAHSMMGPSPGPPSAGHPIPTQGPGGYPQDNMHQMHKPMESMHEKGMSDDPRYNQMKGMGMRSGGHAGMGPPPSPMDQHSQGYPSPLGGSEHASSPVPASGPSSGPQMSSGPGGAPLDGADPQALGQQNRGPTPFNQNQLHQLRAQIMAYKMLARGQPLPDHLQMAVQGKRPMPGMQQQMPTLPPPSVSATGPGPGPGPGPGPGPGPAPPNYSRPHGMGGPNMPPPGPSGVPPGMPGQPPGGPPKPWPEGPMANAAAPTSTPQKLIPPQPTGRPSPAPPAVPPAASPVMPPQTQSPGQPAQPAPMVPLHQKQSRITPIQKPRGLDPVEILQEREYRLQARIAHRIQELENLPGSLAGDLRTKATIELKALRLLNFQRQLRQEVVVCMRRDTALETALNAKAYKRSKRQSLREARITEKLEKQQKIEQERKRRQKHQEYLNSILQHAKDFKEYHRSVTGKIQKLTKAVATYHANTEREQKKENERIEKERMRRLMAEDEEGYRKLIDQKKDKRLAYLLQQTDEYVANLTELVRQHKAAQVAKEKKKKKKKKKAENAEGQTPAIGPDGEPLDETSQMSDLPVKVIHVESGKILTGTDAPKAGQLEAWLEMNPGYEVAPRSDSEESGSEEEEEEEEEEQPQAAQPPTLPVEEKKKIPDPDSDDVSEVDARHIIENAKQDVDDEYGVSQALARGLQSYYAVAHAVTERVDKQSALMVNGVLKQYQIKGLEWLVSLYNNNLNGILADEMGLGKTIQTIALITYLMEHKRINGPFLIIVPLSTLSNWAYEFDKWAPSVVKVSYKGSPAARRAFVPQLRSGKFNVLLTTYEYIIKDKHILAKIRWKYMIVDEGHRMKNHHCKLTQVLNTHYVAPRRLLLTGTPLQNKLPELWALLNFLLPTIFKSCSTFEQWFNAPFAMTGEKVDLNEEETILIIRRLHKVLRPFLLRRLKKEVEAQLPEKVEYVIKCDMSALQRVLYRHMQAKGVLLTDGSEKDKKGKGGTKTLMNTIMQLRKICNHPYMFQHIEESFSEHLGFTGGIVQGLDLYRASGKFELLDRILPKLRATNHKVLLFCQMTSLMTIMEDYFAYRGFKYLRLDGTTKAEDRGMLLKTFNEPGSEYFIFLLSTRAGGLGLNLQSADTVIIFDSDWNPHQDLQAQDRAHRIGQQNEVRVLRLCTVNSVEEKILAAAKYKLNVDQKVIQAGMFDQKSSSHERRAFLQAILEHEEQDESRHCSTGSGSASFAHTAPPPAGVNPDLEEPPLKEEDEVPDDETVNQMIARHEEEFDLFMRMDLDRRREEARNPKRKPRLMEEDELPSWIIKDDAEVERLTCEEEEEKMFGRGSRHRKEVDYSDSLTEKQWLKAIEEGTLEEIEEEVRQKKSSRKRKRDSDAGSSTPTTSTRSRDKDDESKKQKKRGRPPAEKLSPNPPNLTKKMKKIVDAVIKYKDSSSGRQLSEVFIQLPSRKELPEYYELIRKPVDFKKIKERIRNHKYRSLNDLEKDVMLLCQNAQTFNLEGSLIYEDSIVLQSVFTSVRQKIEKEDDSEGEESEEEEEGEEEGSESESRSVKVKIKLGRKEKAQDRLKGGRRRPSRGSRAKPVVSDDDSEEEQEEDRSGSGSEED

For `Cc1ncsc1-c1ccc([C@H](C)NC(=O)[C@@H]2C[C@@H](O)CN2C(=O)C(C(C)C)n2cc(N3CCC4(CCN4c4ccc5nnc(-c6ccccc6O)cc5c4)C3)nn2)cc1` (stereo partly drawn) [Compound 277], the Dmax in experiment [1] was under 50%. In experiment [2], the DC50 is under 10 nM and the “BRM HiBit Degradation Maximum (%)” value was “A (“A” indicates maximum degradation ≥75%)”.

As to `Cc1ncsc1-c1ccc([C@H](C)NC(=O)[C@@H]2C[C@@H](O)CN2C(=O)[C@@H](c2cc(N3CCC4(CN(c5ccc6cc(-c7ccccc7O)nnc6c5)C4)C3)no2)C(C)C)cc1` [Compound 130, (2S,4R)-4-hydroxy-1-((R)-2-(3-(2-(3-(2-hydroxyphenyl)cinnolin-7-yl)-2,6-diazaspiro[3.4]octan-6-yl)isoxazol-5-yl)-3-methylbutanoyl)-N-((S)-1-(4-(4-methylthiazol-5-yl)phenyl)ethyl)pyrrolidine-2-carboxamide], in experiment [1], the DC50 was under 10 nM and the Dmax was over 75%. In experiment [2], the DC50 was under 10 nM and the “BRM HiBit Degradation Maximum (%)” value is reported as “A (“A” indicates maximum degradation ≥75%)”.

As to `CC(C)[C@@H](C(=O)N1C[C@H](O)C[C@H]1C(=O)N[C@@H](C)c1ccc(Br)cc1)n1cc(-c2ccc3nnc(-c4cccc(F)c4O)cc3c2)nn1` [Compound 178, (2S,4R)-N-((S)-1-(4-bromophenyl)ethyl)-1-((S)-2-(4-(3-(3-fluoro-2-hydroxyphenyl)cinnolin-6-yl)-1H-1,2,3-triazol-1-yl)-3-methylbutanoyl)-4-hydroxypyrrolidine-2-carboxamide], in experiment [1], the DC50 is over 10 nM and the Dmax is over 75%. Also, in experiment [2], the DC50 is under 10 nM and the “BRM HiBit Degradation Maximum (%)” value is reported as “A (“A” indicates maximum degradation ≥75%)”.

`CC(C)C(C(=O)N1C[C@H](O)C[C@H]1C(=O)N[C@@H](C)c1ccccn1)c1cc(N2CC3(CN(c4ccc5cc(-c6ccccc6O)nnc5c4)C3)C2)no1` (stereo partly drawn) [Compound 120, (2S,4R)-4-hydroxy-1-(2-(3-(6-(3-(2-hydroxyphenyl)cinnolin-7-yl)-2,6-diazaspiro[3.3]heptan-2-yl)isoxazol-5-yl)-3-methylbutanoyl)-N-((S)-1-(pyridin-2-yl)ethyl)pyrrolidine-2-carboxamide]: the Dmax in experiment [1] is under 50%. Besides, in experiment [2], the DC50 is over 10 nM and the “BRM HiBit Degradation Maximum (%)” value is “A (“A” indicates maximum degradation ≥75%)”.

As for `Cc1ncsc1-c1ccc([C@H](C)NC(=O)[C@@H]2C[C@@H](O)CN2C(=O)C(C(C)C)n2cc(N3CCCC4(CCN(c5ccc6cc(-c7ccccc7O)nnc6c5)CC4)C3)nn2)cc1` (stereo partly drawn) [Compound 251, (2S,4R)-4-hydroxy-1-(2-(4-(9-(3-(2-hydroxyphenyl)cinnolin-7-yl)-2,9-diazaspiro[5.5]undecan-2-yl)-1H-1,2,3-triazol-1-yl)-3-methylbutanoyl)-N-((S)-1-(4-(4-methylthiazol-5-yl)phenyl)ethyl)pyrrolidine-2-carboxamide], in experiment [1], the DC50 is under 10 nM and the Dmax is over 75%. For the same compound, in experiment [2], the DC50 is under 10 nM and the “BRM HiBit Degradation Maximum (%)” value was “A (“A” indicates maximum degradation ≥75%)”.

For `Cc1ncsc1-c1ccc([C@H](C)NC(=O)[C@@H]2C[C@@H](O)CN2C(=O)C(c2cc(N3CC4(CN(c5cc(C(F)F)c6cc(-c7ccccc7O)nnc6c5)C4)C3)no2)C(C)C)cc1` (stereo partly drawn) [Compound 191, (2S,4R)-1-(2-(3-(6-(5-(difluoromethyl)-3-(2-hydroxyphenyl)cinnolin-7-yl)-2,6-diazaspiro[3.3]heptan-2-yl)isoxazol-5-yl)-3-methylbutanoyl)-4-hydroxy-N-((S)-1-(4-(4-methylthiazol-5-yl)phenyl)ethyl)pyrrolidine-2-carboxamide], the Dmax in experiment [1] was under 50%. Further, in experiment [2], the DC50 is over 10 nM and the “BRM HiBit Degradation Maximum (%)” value is “A (“A” indicates maximum degradation ≥75%)”.

(Values after US20260193264A1, “BENZOYPARAZINE PYRAZINES AND THEIR USES” (FOGHORN THERAPEUTICS INC., priority 2022, published 2026).)
